How the values were obtained:
[1] = target: Cyclin-dependent kinase 2 (Homo sapiens, UniProt P24941); experiment: Selectivity interaction (Kinase panel (enzymatic assay)) EUB0000595a CDK2
[2] = target: Histone-lysine N-methyltransferase SETDB1 (Homo sapiens) (UniProt Q15047); settings: at 10 µM
[3] = target: Vascular endothelial growth factor receptor 1 (Homo sapiens) (UniProt P17948); experiment: Selectivity interaction (KinomeScan (DiscoverX)) EUB0000695a FLT1; settings: at 100 nM
[4] = target: Ribosomal protein S6 kinase alpha-6 (Homo sapiens, UniProt Q9UK32); experiment: Selectivity interaction (KinomeScan (DiscoverX)) EUB0000695a RPS6KA6; settings: at 100 nM
[5] = target: T1, Megakaryocyte-associated tyrosine-protein kinase (Homo sapiens) (UniProt P42679); experiment: Selectivity interaction (KinomeScan (DiscoverX)) EUB0001079a MATK; settings: at 1 µM
T1 sequence (whole entry): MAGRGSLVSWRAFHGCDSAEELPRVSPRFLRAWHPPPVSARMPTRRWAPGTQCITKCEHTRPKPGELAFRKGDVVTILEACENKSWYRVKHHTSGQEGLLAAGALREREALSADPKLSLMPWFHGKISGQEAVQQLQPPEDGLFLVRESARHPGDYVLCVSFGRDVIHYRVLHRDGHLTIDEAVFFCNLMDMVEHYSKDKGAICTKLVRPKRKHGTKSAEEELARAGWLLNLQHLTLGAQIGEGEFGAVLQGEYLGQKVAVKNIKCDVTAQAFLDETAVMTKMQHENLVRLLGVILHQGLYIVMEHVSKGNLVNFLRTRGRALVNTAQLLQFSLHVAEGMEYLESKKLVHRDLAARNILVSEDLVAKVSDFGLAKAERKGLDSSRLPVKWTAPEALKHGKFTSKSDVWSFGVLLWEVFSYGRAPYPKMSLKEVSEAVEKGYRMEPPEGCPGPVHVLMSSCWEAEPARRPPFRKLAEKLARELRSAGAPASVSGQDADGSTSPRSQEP

[6] = target: T2, Histone-lysine N-methyltransferase SMYD3 (Homo sapiens) (UniProt Q9H7B4); experiment: Selectivity interaction (Transferase panel (protein, RNA, and DNA methyltransferases. and EP300 (acetyltransferase))) EUB0000270b SMYD3
T2 sequence (whole entry): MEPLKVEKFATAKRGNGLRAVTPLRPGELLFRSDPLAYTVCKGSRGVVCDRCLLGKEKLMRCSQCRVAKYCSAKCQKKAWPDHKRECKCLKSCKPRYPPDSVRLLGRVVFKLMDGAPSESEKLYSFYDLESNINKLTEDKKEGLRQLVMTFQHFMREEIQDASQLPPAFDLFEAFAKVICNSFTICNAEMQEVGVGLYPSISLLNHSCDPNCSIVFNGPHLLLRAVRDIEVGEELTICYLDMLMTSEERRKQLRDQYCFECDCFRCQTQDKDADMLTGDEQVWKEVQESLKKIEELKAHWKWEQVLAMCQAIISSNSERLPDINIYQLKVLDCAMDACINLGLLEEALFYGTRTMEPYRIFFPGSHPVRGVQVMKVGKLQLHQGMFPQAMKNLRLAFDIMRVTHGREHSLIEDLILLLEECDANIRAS

[7] = target: Serine/threonine-protein kinase 32B (Homo sapiens) (UniProt Q9NY57); settings: at 10 µM
[8] = target: Protein kinase C alpha type (Homo sapiens, UniProt P17252); experiment: Selectivity interaction (Kinase panel (literature)) EUB0001199aCl PRKCA; settings: at 1 µM
[9] = target: T3, Cytoplasmic tyrosine-protein kinase BMX (Homo sapiens) (UniProt P51813); experiment: Selectivity interaction (Kinase panel (DSF assay)) EUB0001558a BMX
T3 sequence (whole entry): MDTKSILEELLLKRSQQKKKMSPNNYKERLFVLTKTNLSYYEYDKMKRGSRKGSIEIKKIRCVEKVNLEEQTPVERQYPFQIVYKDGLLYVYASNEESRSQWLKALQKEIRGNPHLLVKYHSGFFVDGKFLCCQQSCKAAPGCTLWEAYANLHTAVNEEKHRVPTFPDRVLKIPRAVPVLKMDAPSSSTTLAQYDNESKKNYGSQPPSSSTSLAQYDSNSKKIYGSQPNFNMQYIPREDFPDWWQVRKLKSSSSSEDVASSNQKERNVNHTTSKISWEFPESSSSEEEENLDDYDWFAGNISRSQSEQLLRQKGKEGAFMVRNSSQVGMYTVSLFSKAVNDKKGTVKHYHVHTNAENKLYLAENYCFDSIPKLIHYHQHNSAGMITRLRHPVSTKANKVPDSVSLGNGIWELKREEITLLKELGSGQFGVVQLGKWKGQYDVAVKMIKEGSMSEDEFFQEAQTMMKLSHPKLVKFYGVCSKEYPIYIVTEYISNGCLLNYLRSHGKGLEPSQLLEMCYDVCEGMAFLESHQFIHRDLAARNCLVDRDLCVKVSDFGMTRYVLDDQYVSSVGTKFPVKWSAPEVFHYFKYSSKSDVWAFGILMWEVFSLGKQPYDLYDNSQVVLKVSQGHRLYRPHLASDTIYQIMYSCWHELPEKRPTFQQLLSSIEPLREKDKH

[10] = Selectivity interaction (KinomeScan (DiscoverX)) EUB0000618a CDPK1; settings: at 10 µM
[11] = target: eIF-2-alpha kinase GCN2 (Homo sapiens) (UniProt Q9P2K8); experiment: Selectivity interaction (ActivX KiNativ screen (kinase selectivity in THP-1 cell lysates)) EUB0000639a EIF2AK4; format: subcellular; settings: lysate, at 0.2 µM
[12] = target: T4, Interleukin-1 receptor-associated kinase 4 (Homo sapiens) (UniProt Q9NWZ3); experiment: Selectivity interaction (Kinase panel (Invitrogen)) EUB0000639a IRAK4; settings: at 200 nM
T4 sequence (whole entry): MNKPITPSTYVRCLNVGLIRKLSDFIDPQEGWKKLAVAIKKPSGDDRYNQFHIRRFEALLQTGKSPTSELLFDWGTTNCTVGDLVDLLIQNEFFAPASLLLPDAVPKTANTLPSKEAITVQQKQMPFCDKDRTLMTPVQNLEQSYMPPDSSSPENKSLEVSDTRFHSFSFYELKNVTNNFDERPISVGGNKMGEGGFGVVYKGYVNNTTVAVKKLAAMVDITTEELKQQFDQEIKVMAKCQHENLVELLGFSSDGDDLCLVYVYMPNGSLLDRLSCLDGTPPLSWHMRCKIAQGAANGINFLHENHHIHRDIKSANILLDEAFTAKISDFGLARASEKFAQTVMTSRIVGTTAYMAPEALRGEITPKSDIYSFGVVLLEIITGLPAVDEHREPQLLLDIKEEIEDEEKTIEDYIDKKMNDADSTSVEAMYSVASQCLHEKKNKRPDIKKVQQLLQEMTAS

[13] = target: Serine/threonine-protein kinase WNK2 (Homo sapiens) (UniProt Q9Y3S1); experiment: Selectivity interaction (ActivX KiNativ screen (kinase selectivity in THP-1 cell lysates)) EUB0000639a WNK2; format: subcellular; settings: lysate, at 0.2 µM
[14] = target: Serine/threonine-protein kinase PAK 1 (Homo sapiens) (UniProt Q13153); experiment: Selectivity interaction (KinomeScan (DiscoverX)) EUB0000092b PAK1; settings: at 10 µM
Chain of Serine/threonine-protein kinase PAK 1 (Homo sapiens) (Q13153 whole entry): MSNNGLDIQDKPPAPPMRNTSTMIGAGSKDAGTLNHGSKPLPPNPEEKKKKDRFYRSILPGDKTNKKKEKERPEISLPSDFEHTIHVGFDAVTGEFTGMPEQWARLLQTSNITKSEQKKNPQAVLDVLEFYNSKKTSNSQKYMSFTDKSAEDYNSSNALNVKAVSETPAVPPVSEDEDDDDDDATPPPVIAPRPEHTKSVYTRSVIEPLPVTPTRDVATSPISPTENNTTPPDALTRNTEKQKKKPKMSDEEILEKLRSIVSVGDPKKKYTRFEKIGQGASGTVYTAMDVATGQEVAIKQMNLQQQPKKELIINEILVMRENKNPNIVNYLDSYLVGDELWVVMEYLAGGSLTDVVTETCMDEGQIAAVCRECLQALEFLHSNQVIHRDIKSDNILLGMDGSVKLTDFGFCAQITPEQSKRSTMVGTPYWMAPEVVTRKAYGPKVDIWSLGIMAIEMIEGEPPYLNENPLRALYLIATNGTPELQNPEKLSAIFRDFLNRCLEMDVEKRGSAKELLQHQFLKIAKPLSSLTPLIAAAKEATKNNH

Chain of Serine/threonine-protein kinase 32B (Homo sapiens) (Q9NY57 whole entry): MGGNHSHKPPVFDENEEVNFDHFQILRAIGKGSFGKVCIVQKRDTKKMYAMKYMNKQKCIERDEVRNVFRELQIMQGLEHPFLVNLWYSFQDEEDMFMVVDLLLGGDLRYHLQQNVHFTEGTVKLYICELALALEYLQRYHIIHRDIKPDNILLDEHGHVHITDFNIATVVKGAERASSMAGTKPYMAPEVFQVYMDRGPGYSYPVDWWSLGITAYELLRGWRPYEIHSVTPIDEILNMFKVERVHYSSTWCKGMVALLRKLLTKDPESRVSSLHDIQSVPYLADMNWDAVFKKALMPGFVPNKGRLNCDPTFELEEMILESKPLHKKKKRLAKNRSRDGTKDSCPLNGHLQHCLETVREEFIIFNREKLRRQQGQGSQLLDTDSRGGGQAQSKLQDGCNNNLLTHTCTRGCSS
Chain of Serine/threonine-protein kinase WNK2 (Homo sapiens) (Q9Y3S1 whole entry): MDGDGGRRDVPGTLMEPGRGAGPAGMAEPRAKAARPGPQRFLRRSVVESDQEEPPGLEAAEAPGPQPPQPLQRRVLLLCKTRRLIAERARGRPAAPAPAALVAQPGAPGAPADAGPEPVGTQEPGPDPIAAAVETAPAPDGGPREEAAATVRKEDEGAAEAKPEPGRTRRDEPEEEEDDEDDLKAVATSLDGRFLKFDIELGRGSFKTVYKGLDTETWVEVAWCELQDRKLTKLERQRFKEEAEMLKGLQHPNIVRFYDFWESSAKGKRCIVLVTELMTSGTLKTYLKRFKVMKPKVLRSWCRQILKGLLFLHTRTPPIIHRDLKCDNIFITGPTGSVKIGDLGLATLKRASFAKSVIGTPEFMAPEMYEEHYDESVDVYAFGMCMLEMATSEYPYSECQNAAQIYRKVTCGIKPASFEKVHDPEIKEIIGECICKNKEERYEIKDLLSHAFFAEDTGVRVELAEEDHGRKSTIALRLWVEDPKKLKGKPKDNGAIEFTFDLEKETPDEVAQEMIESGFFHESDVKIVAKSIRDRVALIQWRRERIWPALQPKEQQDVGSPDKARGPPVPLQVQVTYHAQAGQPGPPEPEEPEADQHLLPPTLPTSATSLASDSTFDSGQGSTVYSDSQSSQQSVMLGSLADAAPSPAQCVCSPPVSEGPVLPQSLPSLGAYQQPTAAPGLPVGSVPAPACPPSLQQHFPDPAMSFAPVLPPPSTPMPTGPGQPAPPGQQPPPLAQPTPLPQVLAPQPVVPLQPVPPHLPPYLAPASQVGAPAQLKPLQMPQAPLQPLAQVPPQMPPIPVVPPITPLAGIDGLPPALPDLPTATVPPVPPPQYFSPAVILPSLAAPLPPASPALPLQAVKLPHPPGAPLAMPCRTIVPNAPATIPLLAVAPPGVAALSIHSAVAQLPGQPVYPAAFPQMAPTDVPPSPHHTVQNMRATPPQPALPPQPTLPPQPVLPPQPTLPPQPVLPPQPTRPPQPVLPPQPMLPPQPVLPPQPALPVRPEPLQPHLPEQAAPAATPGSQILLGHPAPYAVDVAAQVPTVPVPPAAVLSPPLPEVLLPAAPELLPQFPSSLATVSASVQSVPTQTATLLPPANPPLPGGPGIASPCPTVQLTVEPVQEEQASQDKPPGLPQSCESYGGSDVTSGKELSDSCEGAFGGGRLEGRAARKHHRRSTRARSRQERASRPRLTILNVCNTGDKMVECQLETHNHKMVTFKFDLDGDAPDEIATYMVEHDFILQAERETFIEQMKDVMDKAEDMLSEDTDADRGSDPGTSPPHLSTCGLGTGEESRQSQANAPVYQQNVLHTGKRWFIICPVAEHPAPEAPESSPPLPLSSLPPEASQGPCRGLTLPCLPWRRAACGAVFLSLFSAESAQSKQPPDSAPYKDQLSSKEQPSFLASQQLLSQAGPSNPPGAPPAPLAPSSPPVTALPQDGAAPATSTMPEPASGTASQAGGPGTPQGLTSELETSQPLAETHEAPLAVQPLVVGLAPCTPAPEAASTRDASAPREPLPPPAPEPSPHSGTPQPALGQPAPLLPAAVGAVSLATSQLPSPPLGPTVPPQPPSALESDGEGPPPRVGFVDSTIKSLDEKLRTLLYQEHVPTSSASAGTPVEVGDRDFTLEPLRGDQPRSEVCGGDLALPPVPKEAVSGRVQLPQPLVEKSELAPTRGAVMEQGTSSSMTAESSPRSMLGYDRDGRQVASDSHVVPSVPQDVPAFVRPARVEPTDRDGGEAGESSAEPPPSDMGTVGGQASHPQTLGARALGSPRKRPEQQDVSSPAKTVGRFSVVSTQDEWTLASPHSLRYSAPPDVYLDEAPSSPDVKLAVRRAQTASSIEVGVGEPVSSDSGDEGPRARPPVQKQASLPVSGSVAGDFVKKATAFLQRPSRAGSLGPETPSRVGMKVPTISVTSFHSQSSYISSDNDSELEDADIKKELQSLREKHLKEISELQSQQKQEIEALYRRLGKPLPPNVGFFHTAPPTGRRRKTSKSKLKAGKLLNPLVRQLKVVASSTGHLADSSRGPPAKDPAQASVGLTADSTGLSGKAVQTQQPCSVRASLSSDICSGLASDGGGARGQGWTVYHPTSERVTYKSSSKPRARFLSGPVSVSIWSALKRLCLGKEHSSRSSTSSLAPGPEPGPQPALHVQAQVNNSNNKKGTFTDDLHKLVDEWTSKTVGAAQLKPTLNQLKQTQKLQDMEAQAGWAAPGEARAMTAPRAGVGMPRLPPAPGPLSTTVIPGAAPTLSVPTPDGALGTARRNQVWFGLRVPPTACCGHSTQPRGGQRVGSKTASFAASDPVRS
Chain of eIF-2-alpha kinase GCN2 (Homo sapiens) (Q9P2K8 whole entry): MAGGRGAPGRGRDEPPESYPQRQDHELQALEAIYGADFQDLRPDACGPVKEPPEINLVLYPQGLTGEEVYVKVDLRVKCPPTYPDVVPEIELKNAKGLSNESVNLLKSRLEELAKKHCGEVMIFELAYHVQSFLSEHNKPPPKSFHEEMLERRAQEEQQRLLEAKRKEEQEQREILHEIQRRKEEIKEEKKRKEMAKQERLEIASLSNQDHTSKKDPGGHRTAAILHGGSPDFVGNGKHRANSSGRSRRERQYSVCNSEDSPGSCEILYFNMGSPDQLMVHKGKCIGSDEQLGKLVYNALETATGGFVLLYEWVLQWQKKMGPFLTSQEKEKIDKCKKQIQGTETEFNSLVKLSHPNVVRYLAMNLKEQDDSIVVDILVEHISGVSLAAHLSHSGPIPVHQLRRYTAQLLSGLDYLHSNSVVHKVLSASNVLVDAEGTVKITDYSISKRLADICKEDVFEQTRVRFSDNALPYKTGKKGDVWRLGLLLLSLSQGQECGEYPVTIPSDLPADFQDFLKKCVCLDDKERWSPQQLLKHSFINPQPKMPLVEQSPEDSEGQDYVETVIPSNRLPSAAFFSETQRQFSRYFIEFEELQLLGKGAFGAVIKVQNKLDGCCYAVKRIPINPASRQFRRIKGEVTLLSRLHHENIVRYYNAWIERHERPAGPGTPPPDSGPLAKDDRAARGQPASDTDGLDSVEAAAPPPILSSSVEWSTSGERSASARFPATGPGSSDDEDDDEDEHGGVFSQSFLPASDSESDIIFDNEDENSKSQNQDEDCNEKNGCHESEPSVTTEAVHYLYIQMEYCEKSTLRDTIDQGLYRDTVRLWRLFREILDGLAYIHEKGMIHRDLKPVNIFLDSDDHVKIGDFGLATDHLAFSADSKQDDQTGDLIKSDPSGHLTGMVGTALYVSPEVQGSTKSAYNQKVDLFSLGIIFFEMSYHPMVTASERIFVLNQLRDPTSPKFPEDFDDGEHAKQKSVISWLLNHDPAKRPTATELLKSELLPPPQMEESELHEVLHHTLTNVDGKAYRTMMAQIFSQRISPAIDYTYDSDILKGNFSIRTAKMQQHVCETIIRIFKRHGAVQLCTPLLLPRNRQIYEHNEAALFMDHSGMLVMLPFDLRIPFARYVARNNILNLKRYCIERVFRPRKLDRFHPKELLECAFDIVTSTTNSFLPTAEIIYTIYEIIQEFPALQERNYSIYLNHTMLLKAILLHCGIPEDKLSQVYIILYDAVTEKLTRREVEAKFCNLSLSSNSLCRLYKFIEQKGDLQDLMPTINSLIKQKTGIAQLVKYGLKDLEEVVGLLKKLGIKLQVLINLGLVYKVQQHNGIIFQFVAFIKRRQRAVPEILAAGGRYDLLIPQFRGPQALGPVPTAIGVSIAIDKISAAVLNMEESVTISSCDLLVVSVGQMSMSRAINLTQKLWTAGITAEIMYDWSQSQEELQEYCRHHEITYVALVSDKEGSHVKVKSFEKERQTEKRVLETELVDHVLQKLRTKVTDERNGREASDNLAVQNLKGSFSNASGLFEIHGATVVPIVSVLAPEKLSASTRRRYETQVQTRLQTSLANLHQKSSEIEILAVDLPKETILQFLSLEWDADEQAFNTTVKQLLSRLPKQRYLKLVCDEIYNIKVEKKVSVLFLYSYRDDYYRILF

COCC(=O)NC/C=C/c1ccc2ncnc(Nc3ccc(Oc4ccc(C)nc4)c(C)c3)c2c1 [CP-724714]
IC50 [1]: > 10 µM

CNCCN1CCC(c2cc(CN(C)C(=O)c3cccc(Oc4ccccc4)c3)ccn2)CC1
% activity [2]: > 90%

Cc1cc(F)c(C(=O)Nc2cccc(-c3nncn3C(C)C)n2)cc1-n1cnc(C2CC2)c1
% of control [3]: 100%
% of control [4]: 84%

Nc1cnc(N2CCc3cc(S(=O)(=O)Nc4c(F)cc(Cl)cc4F)cc(N4CCCC4=O)c32)nc1 [TP-020n]
% of control [5]: 100%

Cc1cc(CN)cc(C)c1-c1ncn(C)c1-c1cncn1C
% activity ([6]; at 1 µM): > 90%
% activity ([6]; at 10 µM): > 80%

Cc1cc([C@@H](C)Nc2ccccc2C(=O)O)c2nc(N3CCOCC3)cc(=O)n2c1 [AZD-6482]
% of control [7]: 71%

CN1Cc2nccc(-c3cn(C)nc3-c3ccc(F)cc3)c2C1=O
% of inhibition [8]: -1%

CC(C)(O)[C@H](F)CN1Cc2cc(NC(=O)c3cnn4cccnc34)c(N3CCOCC3)cc2C1=O
dTM [9]: 0.2 K

O[C@H]1CC[C@H](Nc2ncc3nc(Nc4c(F)cc(F)cc4F)n([C@H]4CCOC4)c3n2)CC1
% of control [10]: 1.5%

CC[C@@H]1[C@H](F)C(=O)N[C@@H]1COc1nccc2cc(C(N)=O)c(OC)cc12 [ZIMLOVISERTIB]
% of inhibition [11]: 1.7%
% of inhibition [12]: 106%
% of inhibition [13]: -12%

CCC(=O)N1CCN(c2ccc(-n3c(=O)ccc4cnc5ccc(-c6cnc7ccccc7c6)cc5c43)cc2C(F)(F)F)CC1
% of control [14]: 73%

Source: ChEMBL document CHEMBL5465560, “Selectivity Literature for EUbOPEN Chemogenomic Library” (2024)
